Entries after “also recorded” stand apart in the source; their conditions may differ.
Key:
[1] = system: rat urinary bladder detrusor muscle strips; experiment: High-K (60 mM K+) contracture response of K+-depolarized muscle
Description: (§1) Smooth muscle preparations were obtained from male Wistar strain albino rats. The animals were killed by a blow to the head and smooth muscle strips (about 2 mm x 10 mm) were dissected from the bladder. The vasa deferentia were divided into two portions and longitudinally bisected. Tests on cardiac muscle were carried out using isolated cannulated flounder heart. All mammalian preparations were maintained in Krebs solution containing NaCl : 120.7 mM; NaH₂PO₄ : 1.3 mM; KCl : 5.9 mM; NaHCO₃ : 15.5 mM and CaCl₂ : 2.5mM; glucose : 11.5 mM. MgCl₂ : 1.2mM The Krebs solution was adjusted to pH 7.3 with HCl and was continuously aerated and maintained at 37°C.
(§2) To record tension the muscle preparations were mounted vertically in jacketed organ baths which were continuously aerated and whose contents could be rapidly changed. The preparations were attached to a set of Grass Instruments ST 0.3C force displacement transducers held in adjustable rackwork, and the racks were adjusted to put slight tension on the preparations. After mounting in the perfusion baths the preparations were allowed to equilibrate for 1 hour, the bath saline being changed every 15 min. The force displacement transducer outputs were connected to a four-channel Grass model 79 polygraph. The stimulation electrode terminals were attached to Grass SIU 5 isolation units connected to two Grass S48 stimulators driven in tandem. Stimulation train parameters varied in different preparations but a common regime consisted of a 200 msec train of pulses at 50 Hz, each pulse being 2-5 msec at 40-50 V. Trains were automatically repeated usually at 100 or 50 sec intervals. The techniques have been described in detail by Huddart and Butler (1986) in Gen. Pharmac., 17, 695-703 (1986).
(A) Rat urinary bladder detrusor muscle strips were tested in a high-K saline prepared by substitution of sodium compounds in the Krebs' solution by equimolar amounts of potassium compounds to give a K+ concentration of 60 mM. At this level of depolarization it is believed that the fast calcium channels are voltage-inactivated. […]

[2] = Field stimulation response (more recent findings, tissue not stated); conditions: no tissue or concentration printed
[3] = system: rat vas deferens smooth muscle; experiment: Field stimulation contractions of isolated smooth muscle (organ bath tension recording)
Description: as §1, §2
(§3) The smooth muscle preparations were threaded through two silver/silver chloride ring electrodes (4 mm inside diameter), mounted 10 mm apart on a perspex rod. The bottom ligature was passed through a fine hole in a nylon screw at the base of the rod. By turning the screw the muscle strip could be drawn exactly through the electrode rings. The electrode assemblies were then placed in the jacketed organ baths as described above and the upper muscle ligatures attached to the transducer to measure tension. Both the vas deferens and the bladder smooth muscles responded to the field stimulation with consistent repeatable contractions. It is believed that these contractions are calcium-dependent via the operation of slow calcium channels. The effect of ABA on these contractions was tested by adding a concentrated solution thereof to the perfusion solution to give an overall ABA concentration of 10⁻⁶M. In the two vas deferens studies the slow calcium channel blocker nifedipine was then added in the same manner to produce a concentration of 10⁻⁷M. […]

[4] = system: rat urinary bladder detrusor muscle strips; experiment: as above
Description: as §1, §2, §3

[5] = system: microsomal calcium efflux; experiment: Potassium-stimulated microsomal calcium efflux; assay type: biochemical
[6] = system: flounder heart; experiment: Contractile force of isolated cannulated heart
Description: as §1
The flounder heart was maintained at 10°C in flounder saline containing NaCl : 116.7 mM, CaCl₂ : 1.72 mM, Na₂SO₄ : 18.6 mM, TES : 2.5 mM and KCl : 2.71 mM, glucose : 5.0 mM MgSO₄ : 0.67 mM, at pH 7.65.
as §2
The contractile force in flounder heart was measured before and after addition of ABA to the perfusion solution.

[7] = system: rat vas deferens smooth muscle (partly depolarized); experiment: K+-induced (20 mM K) contracture tension, dose-response comparison; conditions: for activity in enhancing K+-induced contracture tension: parallel trials of ABA and BAY K 8644, result in words
Description: as §1, with “All mammalian preparations were maintained in Krebs solution containing NaCl : 120.7 mM; NaH₂PO₄ : 1.3 mM; KCl : 5.9 mM; NaHCO₃ : 15.5 mM and CaCl₂ : 2.5mM; glucose : 11.5 mM.” left out
as §2, with “intervals.” for “intervals. The techniques have been described in detail by Huddart and Butler (1986) in Gen. Pharmac., 17, 695-703 (1986).”

[8] = Rattus norvegicus, read-out: enhanced field stimulation responses

Compound | tonic phase of the response ([1]; ABA 10⁻⁶ M in high-K saline, added just after the initial phasic response) | contracture tension ([1]; ABA 10⁻⁶M, K+-depolarized muscle, result in words) | activation at 1 µM ([1]; Rattus norvegicus, 0.25 h, ABA 10⁻⁶ M added 15 minutes before the high-K solution (K+ 60 mM), read-out: enhancement of contracture tension) [%] | field stimulation response [2] | activation at 1 µM [3, 8] [%] | activation at 1 µM [4, 8] [%] | potassium-stimulated microsomal calcium efflux [5] | contractile force ([6]; ABA 10⁻⁶M in perfusion solution, 10°C) | cardiac arrhythmia ([6]; prolonged ABA exposure (15 minutes)) | activity in enhancing K+-induced contracture tension [7] | EC (100% enhancement) ([7]; rat vas deferens, partly depolarized, read-out: threshold for 100% enhancement of K contracture tension) [µM] | inhibition of the ABA augmentation of the field stimulation response (and of the response itself) ([3]; nifedipine 10⁻⁷M added after ABA 10⁻⁶M, vas deferens) | inhibition of the ABA augmentation of the field stimulation response (and of the response itself) ([4]; nifedipine after ABA 10⁻⁶M, bladder) | inhibition of the ABA action on contractile force ([6]; nifedipine after ABA 10⁻⁶M) | threshold / potency relative to ABA ([7]; rat vas deferens)
CC1=CC(=O)CC(C)(C)C1(O)/C=C/C(C)=C\C(=O)O (racemic) [ABA, (1ʹS,2Z,4E)-5-(1ʹ-hydroxy-2ʹ,6ʹ,6ʹ-trimethyl-4ʹ-oxocyclohex-2ʹ-enyl)-3-methyl-penta-2,4-dienoic acid] | enhanced; also recorded: considerable enhancement | considerably augmented | 50 | enhances | ~25 | ~25 | enhances | augment | pronounced cardiac arrhythmia | identical activity | ~0.005 | – | – | – | –
COC(=O)C1=C(C)NC(C)=C(C(=O)OC)C1c1ccccc1[N+](=O)[O-] [nifedipine, reference compound] | – | – | – | – | – | – | – | – | – | – | – | inhibited | inhibited | inhibited | –
COC(=O)C1=C(C)NC(C)=C([N+](=O)[O-])C1c1ccccc1C(F)(F)F (stereo not shown) [BAY K 8644, methyl 1,4-dihydro-2,6-dimethyl-5-nitro-4-[2-(trifluoromethyl)-phenyl]-3-pyridinecarboxylate, reference compound] | – | – | – | – | – | – | – | – | – | identical activity | – | – | – | – | roughly one order of magnitude greater than ABA

From patent publication EP0240257A2, “Compounds and pharmaceutical preparations having calcium - regulatory activity” (University of Lancaster, priority 1986, dated 1987)
